Laboratory results reported in patent US20030004131A1, “OENOTHEIN MEDICAMENTS” (priority 1999, published 2003).

Key:
[1] = system: hen's-egg chorioallantoic membrane (CAM); assay: hen's-egg chorioallantoic membrane (CAM) irritation model with 15% lactic acid as standard irritant; assay type: in vivo; conditions: CAM treated with 15% lactic acid; sample applied before the irritant (prophylactic use); oenothein-B tested at 1% (weight to volume) dilution
Description: In the hen's-egg chorioallantoic membrane (CAM) model, in which the CAM is treated with 15% lactic acid as a standard irritant, the development of manifestations of membrane irritation were tracked and scored according to published methods for assessing irritancy (Luepke and Kemper, 1986, Food and Chemical Toxicology 24:495; Spielmann et al. 1997, Food and Chemical Toxicology 35:39). A sample of the oenothein-B extract from Canadian Willowherb described in Example 1 was tested at a 1% (weight to volume) dilution for activity in the CAM model.

[2] = xanthine oxidase/acetaldehyde spectrophotometric superoxide radical scavenging method; assay type: biochemical
Description: The scavenging of free superoxide radicals is quantitated spectrometrically and expressed in terms of percentage of radicals scavenged. Assays were performed with 1% (w/v) and 0.1% (w/v) dilutions of the dried extract, which yielded up to 100% scavenging activity and up to 99% scavenging activity respectively.

oenothein-B
decrease in irritation [1]: up to 70%
scavenging activity (percentage of radicals scavenged) ([2]; 0.1% (w/v) dilution of the dried extract): up to 99%
scavenging activity (percentage of radicals scavenged) ([2]; 1% (w/v) dilution of the dried extract): up to 100%
